What all share (type): cell-based
For assay [1], the target named is T1, carnitine transporter comprising the amino acid sequence SEQ ID NO: 2 (Mus musculus, UniProt Q9D687).
T1 sequence (Q9D687 1-634): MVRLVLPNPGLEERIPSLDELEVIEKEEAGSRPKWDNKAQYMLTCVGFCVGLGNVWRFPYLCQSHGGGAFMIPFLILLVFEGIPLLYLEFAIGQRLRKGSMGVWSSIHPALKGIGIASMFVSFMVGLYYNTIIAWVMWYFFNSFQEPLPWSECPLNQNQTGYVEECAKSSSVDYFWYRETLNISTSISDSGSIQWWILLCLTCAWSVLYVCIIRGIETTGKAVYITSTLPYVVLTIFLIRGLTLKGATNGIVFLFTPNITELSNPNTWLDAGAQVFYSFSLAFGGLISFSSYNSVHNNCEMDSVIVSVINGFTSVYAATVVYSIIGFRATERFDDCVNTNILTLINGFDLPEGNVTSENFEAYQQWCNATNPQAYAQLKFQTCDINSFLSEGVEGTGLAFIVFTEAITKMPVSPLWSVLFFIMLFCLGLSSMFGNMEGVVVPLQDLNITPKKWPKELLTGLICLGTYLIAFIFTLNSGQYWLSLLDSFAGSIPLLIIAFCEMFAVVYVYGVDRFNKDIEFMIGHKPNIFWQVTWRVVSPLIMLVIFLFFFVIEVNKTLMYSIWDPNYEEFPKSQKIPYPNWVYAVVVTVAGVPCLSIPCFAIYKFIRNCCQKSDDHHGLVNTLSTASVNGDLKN
Put plainly: Transport activity of the mouse kidney and intestinal carnitine transporter.

The target of assay [2] is T2, carnitine transporter comprising the amino acid sequence SEQ ID NO: 3 (Rattus norvegicus, UniProt Q2A865, F276Y/R32K/S186P).
T2 sequence (Q2A865 1-634 R32K/S186P/F276Y): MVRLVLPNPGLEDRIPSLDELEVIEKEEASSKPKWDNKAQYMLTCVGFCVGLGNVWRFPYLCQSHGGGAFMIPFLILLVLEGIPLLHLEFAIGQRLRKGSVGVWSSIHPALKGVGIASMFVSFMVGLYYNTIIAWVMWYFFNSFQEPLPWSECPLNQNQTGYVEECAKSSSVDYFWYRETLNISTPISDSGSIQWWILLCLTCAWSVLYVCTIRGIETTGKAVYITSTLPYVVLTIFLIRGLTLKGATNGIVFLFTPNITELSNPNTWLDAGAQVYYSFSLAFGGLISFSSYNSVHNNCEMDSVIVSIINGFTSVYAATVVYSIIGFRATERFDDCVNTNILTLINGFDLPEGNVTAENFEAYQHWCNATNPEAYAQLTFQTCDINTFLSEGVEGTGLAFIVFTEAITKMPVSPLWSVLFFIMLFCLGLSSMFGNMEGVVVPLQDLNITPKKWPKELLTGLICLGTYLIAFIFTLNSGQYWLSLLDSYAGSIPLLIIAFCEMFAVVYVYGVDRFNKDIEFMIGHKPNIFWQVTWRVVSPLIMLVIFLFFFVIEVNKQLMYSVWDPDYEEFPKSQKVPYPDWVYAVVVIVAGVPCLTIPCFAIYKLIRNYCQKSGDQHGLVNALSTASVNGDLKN
Put plainly: Transport activity of the rat kidney and intestinal carnitine transporter.

In assay [3] the target is T3, carnitine transporter comprising the amino acid sequence SEQ ID NO: 1 (Homo sapiens, UniProt Q695T7).
T3 construct: expressed in transfected cells; host or cells: Xenopus laevis oocytes injected with cRNA
T3 sequence (Q695T7 1-634): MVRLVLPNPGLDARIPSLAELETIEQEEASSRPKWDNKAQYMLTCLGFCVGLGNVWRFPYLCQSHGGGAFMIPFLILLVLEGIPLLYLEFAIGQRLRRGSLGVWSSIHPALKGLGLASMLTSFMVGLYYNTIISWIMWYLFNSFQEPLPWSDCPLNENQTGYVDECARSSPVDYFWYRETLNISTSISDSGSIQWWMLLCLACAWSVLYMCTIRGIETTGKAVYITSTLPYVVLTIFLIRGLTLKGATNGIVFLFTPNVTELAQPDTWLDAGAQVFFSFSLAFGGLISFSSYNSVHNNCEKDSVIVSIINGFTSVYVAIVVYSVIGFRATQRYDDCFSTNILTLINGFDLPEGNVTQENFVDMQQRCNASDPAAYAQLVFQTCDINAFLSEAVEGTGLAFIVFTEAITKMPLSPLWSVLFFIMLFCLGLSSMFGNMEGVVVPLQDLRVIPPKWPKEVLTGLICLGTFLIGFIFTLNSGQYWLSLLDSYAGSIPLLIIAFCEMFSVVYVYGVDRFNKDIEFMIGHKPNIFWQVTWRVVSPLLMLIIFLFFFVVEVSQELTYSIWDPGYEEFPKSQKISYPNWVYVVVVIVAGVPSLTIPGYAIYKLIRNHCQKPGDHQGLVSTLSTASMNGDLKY
Put plainly: Tracer flux transport measurement in Xenopus laevis oocytes injected with cRNA comprising SEQ ID NO: 4. Particulars: for kinetics of transport compared with the substrate L-carnitine (FIG. 2): SEQ ID NO: 1, other substrates. As to the method: The transport measurements of radioactively labeled compounds were executed using Xenopus laevis oocytes in the so-called “tracer flux method”, wherein the transport rate of substrates across the oocyte membrane into the cytosol is determined.
A Xenopus laevis oocyte was injected with a cRNA molecule comprising SEQ ID NO: 4.
Injected oocytes were kept in the culture medium ORi comprising gentamycin (50 mg/L) at 18° C. until the measurement of substrate uptake. Injured, acutely altered or later heavily damaged cells were discarded.
After 72 hours the oocyte was used for screening for a carnitine transporter agonist or antagonist.
Polysterene wells treated with oocyte homogenate were filled with 200 μl substrate solution. The oocytes were first washed two times with ORi solution, before use in the determination. 8 to 10 oocytes were used in a reaction mixture, in order to enable statistical evaluations. After the addition of the oocytes into the substrate solution the reaction mixture was softly mixed and incubated. The incubation was carried through at 22° C. for 1 hour. In order to stop the reaction, 1 ml of ice cold ORi was added.
The oocytes were washed four times in 15 ml ice cold ORi. Subsequently the oocytes were individually transferred into a 6 ml counter vial. The oocyte plasma membrane was disrupted by adding 100 μl […] solution. The vials were slightly agitated to disrupt the plasma membrane. The plasma membrane was completely disrupted by agitation for 30 to 45 minutes. The lysates were mixed with 2 ml of a scintillation cocktail. The radioactivity of the lysates was determined in a liquid scintillation counter comprising a correction for the luminescence and an external standard. Each vial was counted for 5 minutes.
In order to determine the substrate concentration after the dropping in of the oocytes, 2×10 μl solution were removed from the reaction mixture, 100 μl 5% SDS solution was added and evaluations with the counter were carried out. The obtained values were considered in the calculation of the transport rates.
For the determination of concentration-dependent substrate uptake serial dilutions of the investigated substrate were prepared and the radioactivity was distributed, such that in each reaction mixture between 10000 and 20000 cpm were counted in the supernatant. For the KM determination the substrate uptake was measured for 1 hour. In addition, the measurement was carried through using H2O-injected oocytes, in order to determine the background, i.e. the unspecific substrate uptake, for example mediated by diffusion or by endogenous transport proteins. The transport rates were calculated and graphically plotted against the substrate concentration and adapted mathematically according to the Michaelis-Menten equation.

SMILES strings stand for the structures.

For the molecule `C[N+](C)(C)C[C@H](O)CC(=O)[O-]` [L-carnitine], the “kinetics of transport compared with FIG. 2 (SEQ ID NO: 1)” value in assay [1] and in assay [2] was “comparable kinetics” throughout.
Consider `CN(CC(=O)O)C(=N)N` [creatine], for which the “transport of the substrate” value in assay [3] (SEQ ID NO: 1), in assay [1] and in assay [2] was “transport” throughout. Also, in assay [3], the “kinetics of transport compared with the substrate L-carnitine (FIG. 2)” value is reported as “comparable kinetics”.
With `C[n+]1ccc(-c2ccccc2)cc1` [methylphenylpyridinium], the “kinetics of transport compared with the substrate L-carnitine (FIG. 2)” value in assay [3] is on record as “comparable kinetics”.
The same measure, in the same setting: as for `NC[C@H](O)c1ccc(O)c(O)c1` [noradrenaline], the entry is “comparable kinetics”; as for `NCCc1c[nH]c2ccc(O)cc12` [serotonin], “comparable kinetics”.

The values above are taken from patent US7879563B2, “Method of screening for a carnitine transporter agonist or antagonist and its uses” (Sanofi-Aventis Deutschland GmbH, priority 2004, dated 2011).
